Experimental findings from patent publication US20260256790A1, “DEBIO-0123 IN COMBINATION WITH TEMOZOLOMIDE AND RADIOTHERAPY FOR USE IN TREATING GLIOMA” (Debiopharm International S.A., priority 2023, published 2026) are described below.

Series [1] in a line: Free fraction in rat plasma (separate experiment, not shown). The format is in vitro ADME.
A further series deals with T98G GBM cell line. Kind of series: Colony formation with radiotherapy, T98G. In kind it is cell-based. The settings on record: 0.1 μM to 5.0 μM, irradiated at 1, 2 and 4 Gy, p<0.0001. On the procedure:
GBM tumor cells (T98G, LN18, SNB-19 and U251) were grown as an adherent monolayer at 37° C. in a humidified atmosphere (5% CO2, 95% air). For experimental use, tumor cells were detached from culture flasks by a 5-minute treatment with trypsin-versene, in Hanks' medium without calcium or magnesium and neutralized by addition of complete culture medium. Cells were counted and viability assessed using a 0.25% trypan blue exclusion assay. All cell lines were appropriately seeded following the conditions for monolayer colony formation in 6-well plates (Ref #152795, Nunc, Dutscher) in 1.9 ml of cell culture medium, at 3 densities for evaluation of a proclonogenic effect. […]
Treatments were performed at 24 hours (D1) after seeding by addition of ×20 concentrated compound or vehicle solutions, to obtain final concentrations of 0.1 μM to 5.0 μM of Compound of formula (I) [referred to as CoF (I) in FIG. 3]. […] After 14 days of incubation, colonies were counted after being stained through incubation with 500 μl of a solution of water containing 0.05% (w/v) of methylene blue (Ref. M4159, Sigma) for 2 hours. Colonies were counted using a colony counter pen (Ref #045855, Dutscher, Brumath, France). The Surviving Fraction was calculated for each condition using the equations described below and plotted on a semi-logarithmic graph using the Linear-Quadratic model. […]

The test system of a further series is U87-MG-luc GBM cell line. The experiment in a line: U87-MG-luc tumors implanted intracranially in mice, combination with temozolomide. In kind it is in vivo. The following applies: 28 day cycle. As to the method: Male athymic nude mice were injected into the cerebellum with 1×10^5 U87-MG-luc cells in Matrigel. Animals were imaged to monitor tumor establishment and growth throughout the study using an In Vivo Imaging System (IVIS) once weekly, detecting tumor bioluminescence (BLI) in photons. Once tumor establishment was confirmed, animals were randomly allocated into 8 treatment groups: vehicle (0.5% methycellulose, 1% Tween 80 P.O. and saline IV.), Compound of formula (I) [CoF (I)](formulated as a suspension in 0.5% methycellulose and 1% Tween 80) administered orally at 3 mg/kg, at 10 mg/kg or at 30 mg/kg once daily (QD) in monotherapy, temolozomide [TMZ] administered orally at 3 mg/kg once daily (QD) in monotherapy, over a 28 day cycle, and combination of TMZ+compound of formula (I) at each dose) (n=6 animals per group for monotherapy groups and n=8 animals per group for combination groups). In combination arms, Compound of formula (I) and was administered 2 hours prior to TMZ. During routine monitoring, the animals were checked for any effects of tumor growth and treatments on behavior such as mobility, food and water consumption, body weight gain/loss 3 times a week, eye/hair matting and any other abnormalities. Mortality and observed clinical signs were recorded for individual animals in detail.

SMILES strings stand for the structures.

Turning to `Cc1cc(Nc2ncc3c(n2)N(C)CN(c2c(Cl)cccc2Cl)C3=O)ccc1C1CCN(C)CC1` [Compound of formula (I)], the fraction unbound (in general, free concentration divided by total concentration) in series [1] came to 0.078. In addition, in the series on T98G GBM cell line, the “Effect on radiotherapy (surviving fraction, colony formation)” value is on record as “significantly increased effect of radiotherapy”. In addition, the “Anti-tumor activity (mean relative BLI) vs vehicle” value is on record as “did not result in any significant anti-tumor activity” in the series with U87-MG-luc GBM cell line (monotherapy 3 mg/kg oral QD); “did not result in any significant anti-tumor activity” in the series on U87-MG-luc GBM cell line (monotherapy 10 mg/kg oral QD); “significantly smaller tumors than vehicle controls” with U87-MG-luc GBM cell line (monotherapy 30 mg/kg oral QD, p=0.0133 on day 36).
